Results: patent US10669256B2, “Crystalline forms of lasmiditan, preparation methods, pharmaceutical compositions and uses thereof” (priority 2016, dated 2020)
“Also recorded” adds a separate entry of the source. Counter-ions that a name gives are not always drawn.

Legend:
[1] = Dynamic vapor sorption / isothermal sorption (hygroscopicity); assay type: physicochemical; details: for weight change (isothermal sorption plot): between 0 to 80% RH; for weight change (DVS isothermal sorption plot): between 20 to 80% RH
Procedure: Dynamic vapor sorption data and isothermal sorption data were collected on TA Instruments Q5000 TGA. Method: A sample of 1 to 10 mg was placed in a platinum pan; the weight change of the sample during the change in relative humidity from 0% to 80% to 0% was measured.

[2] = Solid state stability experiment (XRD after storage at room temperature under dry condition); assay type: physicochemical; details: for 1 day test results (solid form by XRD): stored 1 day; for 10 days test results (solid form by XRD): stored 10 days
Procedure: X-ray powder diffraction (XRPD): performed on Bruder D8 Advance diffractometer. Samples were tested at room temperature. Testing conditions: […] 3-40°, step size 0.02°, and speed 0.2 s/step.
Solid state stability experiment: Placed 20 mg of each of lasmiditan amorphous form of preparation Example 1, lasmiditan hydrochloride amorphous of Preparation Example 2, lasmiditan Form 1, lasmiditan Form 2, lasmiditan Form 3, lasmiditan hydrochloride Form A, lasmiditan hydrochloride Form B, lasmiditan hydrochloride Form C, and lasmiditan hydrochloride Form E of the present invention at room temperature under dry condition, took the samples out and analyzed by XRD at the corresponding time, their XRD pattern are shown in FIGS. 16-18 and FIGS. 46-50.

| Compound | weight change (isothermal sorption plot) [1] [%] | weight change (DVS isothermal sorption plot) [1] [%] | 1 day test results (solid form by XRD) [2] | 10 days test results (solid form by XRD) [2] | weight change (isothermal sorption plot) ([1]; hydrochloride) [%] | 1 day test results (solid form by XRD) ([2]; hydrochloride) | 10 days test results (solid form by XRD) ([2]; hydrochloride) | other results |
| --- | --- | --- | --- | --- | --- | --- | --- | --- |
| CN1CCC(C(=O)c2cccc(NC(=O)c3c(F)cc(F)cc3F)n2)CC1 [Lasmiditan Form 1, 2,4,6-trifluoro-N-[6-(1-methyl-piperidine-4-carbonyl)pyridin-2-yl]-benzamide] | 0.1 | 0.1 | Form 1 | Form 1 | – | – | – | 10 days test results (solid form by XRD) ([2]; listed as lasmiditan Form 1): remained unchanged; also recorded: still remained their original forms |
| CN1CCC(C(=O)c2cccc(NC(=O)c3c(F)cc(F)cc3F)n2)CC1 [Lasmiditan Form 2, 2,4,6-trifluoro-N-[6-(1-methyl-piperidine-4-carbonyl)pyridin-2-yl]-benzamide] | 0.1 | 0.1 | Form 2 | Form 2 | – | – | – | 10 days test results (solid form by XRD) ([2]; listed as lasmiditan Form 2): still remained their original forms; also recorded: remained unchanged |
| CN1CCC(C(=O)c2cccc(NC(=O)c3c(F)cc(F)cc3F)n2)CC1 [Lasmiditan Form 3, 2,4,6-trifluoro-N-[6-(1-methyl-piperidine-4-carbonyl)pyridin-2-yl]-benzamide] | 0.7 | – | Form 3 | Form 3 | – | – | – | 10 days test results (solid form by XRD) ([2]; listed as lasmiditan Form 3): still remained their original forms; also recorded: remained unchanged |
| CN1CCC(C(=O)c2cccc(NC(=O)c3c(F)cc(F)cc3F)n2)CC1 [Lasmiditan amorphous form, 2,4,6-trifluoro-N-[6-(1-methyl-piperidine-4-carbonyl)pyridin-2-yl]-benzamide, reference compound] | 9.5 | 9.5 | began to crystallize | – | – | – | – | weight change (isothermal sorption plot) ([1]; listed as Preparation Example 1): 9.5% |
| CN1CCC(C(=O)c2cccc(NC(=O)c3c(F)cc(F)cc3F)n2)CC1 [Lasmiditan hydrochloride Form A, lasmiditan hydrochloride] | – | – | – | – | 0.1 | Form A | Form A | 10 days test results (solid form by XRD) ([2]; listed as lasmiditan hydrochloride Form A, hydrochloride): remained unchanged; also recorded: still remained their original forms |
| CN1CCC(C(=O)c2cccc(NC(=O)c3c(F)cc(F)cc3F)n2)CC1 [Lasmiditan hydrochloride Form B, lasmiditan hydrochloride] | – | – | – | – | 4.2 | Form B | Form B | 10 days test results (solid form by XRD) ([2]; listed as lasmiditan hydrochloride Form B, hydrochloride): remained unchanged; also recorded: still remained their original forms |
| CN1CCC(C(=O)c2cccc(NC(=O)c3c(F)cc(F)cc3F)n2)CC1 [Lasmiditan hydrochloride Form C, lasmiditan hydrochloride] | – | – | – | – | 0.9 | Form C | Form C | 10 days test results (solid form by XRD) ([2]; listed as lasmiditan hydrochloride Form C, hydrochloride): remained unchanged; also recorded: still remained their original forms |
| CN1CCC(C(=O)c2cccc(NC(=O)c3c(F)cc(F)cc3F)n2)CC1 [Lasmiditan hydrochloride Form E, lasmiditan hydrochloride] | – | – | – | – | – | Change to Form A | – | 1 day test results (solid form by XRD) ([2]; listed as lasmiditan hydrochloride Form E, hydrochloride): converted to Form A |
| CN1CCC(C(=O)c2cccc(NC(=O)c3c(F)cc(F)cc3F)n2)CC1 [Lasmiditan hydrochloride amorphous form, lasmiditan hydrochloride, reference compound] | – | – | – | – | 8.1 | began to crystallize | – | weight change (isothermal sorption plot) ([1]; listed as Preparation Example 2, hydrochloride): 8.1% |
